Results on 3 molecules are retold here after patent publication US7183257B2, “Use of RPL41 to treat infections and inhibit cancer” (priority 2004, dated 2007).

The subject of series [1] is 24 tumor cell lines of various tissue types (ATCC). The format is cell-based.
Series [2] is described as follows: Isoelectric point of peptide. Format: physicochemical.
For series [3], the system named is five tumor cell lines (HTB72, CRL1435, CRL5800, HCT116, MCF7). Briefly: Caspase inhibitor z-VAD.fmk with RPL41 (morphology and Δψm assays). Particulars: Z-VAD.fmk 50 μM with RPL41 6.7 μM, 8 hours. Format: cell-based. The protocol:
FIG. 10—RPL41 induced cell death is caspase independent. […].
. The cell death induced by RPL41, therefore, is likely to be caspase-independent. A broad-spectrum caspase inhibitor z-VAD.fmk was also incubated with five tumor cell lines, in the presence of RPL41, to determine whether the inhibition of caspases will attenuate RPL41 induced cell death. […]

Peptide text beside a SMILES is read from it. * marks the point of attachment. Cbz = O=C(OCc1ccccc1)*; CH2F = FC*

As for “NH2-KARMRMKRKLRKRMRKRQRSRKWKR-OH (H-KARMRMKRKLRKRMRKRQRSRKWKR-OH)”, the “inhibition effect on tumor cell growth after pre-treatment of peptide with proteases” value in series [1] (peptides pre-treated with proteases (DIGEST-ALL, Zymed)) was “completely abolished”.

In turn, “MLISSGLKDGIRSGI [control peptide unrelated to RPL41]” came in with a pI in series [2] of 8.5. Further, the “effect on tumor cell growth” value in series [1] (concentration ten times higher than that of RPL41) is on record as “no effect on tumor cell growth”.

For the molecule `COC(=O)C[C@H](NC(=O)[C@H](C)NC(=O)[C@@H](NC(=O)OCc1ccccc1)C(C)C)C(=O)CF` [z-VAD.fmk] (Cbz-Val-Ala-Asp(OMe)-CH2F), in series [3], the “suppression of RPL41 induced cell death” value is recorded as “failed to suppress the RPL41 induced cell death”.
